Laboratory results reported in US20230113802A1, “COMPOSITION AND METHOD TO PREPARE LONG-ACTING INJECTABLE SUSPENSION CONTAINING MULTIPLE CANCER DRUGS” (University of Washington, priority 2020, published 2023).
Where “and” joins values, the source holds several entries; their conditions need not be identical. Equal values may be shown once. Read-outs that look alike come from different tables or passages of the source. Marks after values point to notes of the source that are not given here. One block for each compound: values may come before it.

Key:
[1] = Pharmacokinetic study of GT DcNP vs CrEL drug combination in mice (Example 1); format: in vivo, BALB/c mice; conditions: GT 50/5 mg/kg IV; for AUC(0-t) / Cmax / t1/2apparent: plasma; for AUC(0-t): iv
Experimental: Mice were administered with either a CrEL drug combination or GT DcNP intravenously with doses of 50/5 mg/kg GT. […] Each group had three animals and each animal was bled once only. Retro-orbital blood collection in this study was a terminal procedure and animals were under anesthesia at the time of bleeding. After blood collection, mice were euthanized by CO2 overdose followed by cervical dislocation as the secondary method of euthanasia. Drugs in plasma were extracted and analyzed by LC-MS/MS as described below.
A liquid-liquid extraction was used to extract drugs from plasma or tissue homogenates. […] Samples were spiked by internal standards (see below) followed by the addition of acetonitrile. […] The dried samples were reconstituted in 20% methanol and 80% water in 50 μL.
Drugs were quantified by a Shimadzu HPLC system coupled to a 3200 QTRAP mass spectrometer (Applied Biosystems, Grand Island, N.Y.). The HPLC system consisted of two Shimadzu LC-20A pumps, a DGU-20A5 degasser, and a Shimadzu SIL-20AC HT autosampler. The mass spectrometer was equipped with an electrospray ionization (ESI) TurbolonSpray source. The system was operated with Analyst software, version 1.5.2 (ABSciex, Framingham, Mass.).
Chromatographic separation of drugs was achieved using a Synergi column (100×2.0 mm; 4-μm particle size) with an inline C8 guard column (4.0×2.0 mm) (Phenomenex, Torrance, Calif.). An ammonium acetate buffer/reagent alcohol gradient was used to separate components. Analytes were monitored using multiple-reaction monitoring for positive ions.

[2] = Drug association efficiency (AE %) of GT DcNPs by dialysis under sink conditions; format: physicochemical; conditions: in vitro dialysis under sink conditions, 4 h, batches 1-5 and average
Experimental: Ethanol was removed by controlled solvent evaporation at 60° C., followed by vacuum desiccation to remove residual solvent. The dry film was rehydrated to 100 mM lipids in 0.45% NaCl with 20 mM NaHCO3 buffer at 60° C. for 2 h. Particle size was reduced at ˜40° C. using a bath sonicator (Avanti Polar Lipids, Inc. Alabaster, Ala.) (5 min on, […], 3 cycles). GT DcNP formulations were stored at room temperature for further use. Particle size was determined by a NICOMP 380 ZLS (Particle Sizing Systems, Santa Barbara, Calif.). Drug extraction with acetonitrile followed by HPLC were used to quantify drugs in formulations. Drug association was measured by dialysis (6-8 kDa) of DcNP against 0.9% NaCl 20 mM NaHCO3 buffer for 4 h and quantification by HPLC.
Drug association efficiency (AE %) was determined by dialyzing 100 μl of the DcNP suspension (6-8 k MWCO) against 1000×volume (100 mL, pH=7.4) of bicarbonate buffered saline for 4 hours at room temperature. Drugs were extracted by acetonitrile and drug concentrations in pre and post-dialysis DcNP suspensions were measured with a Shimadzu HPLC-UV system (Kyoto, Japan). Chromatographic separation was achieved using a Kinetex C18 column (100 Å, 5 μm, 4.6 mm×100 mm) (Phenomenex, Torrance, Calif.). The flow rate was set to 1.0 mL/min with a 10 μl sample injection volume. The mobile phase for separation consisted of pump A (Acetonitrile) and B (10 mM Ammonium Acetate in water). The gradient program used was as follows: pump B was set to 40%, and increased to 100% over 5 minutes. […] AE % was calculated as the […] concentrations of G or T.

[3] = plasma concentration above which G tri-phosphate levels no longer increase; patients with leukemia; cited from earlier work
metastatic breast cancer = conditions: cited from earlier work
HL-60 cells = assay: AlamarBlue cell growth inhibition, HL-60; format: cell-based; conditions: Homo sapiens; for IC50: 120 h, HL-60, five days; for EC50: HL-60, 120 h, HL60 (Bcl-2 +, BTK +), 5 days, read-out: Inhibitory effects (EC50)
Experimental: K-562 cells (human leukemia) were purchased from ATCC (Manassas, USA). Additional human leukemic cell lines, MOLT-4 and HL-60, were a generous gift from Carrie Cummings at Fred Hutchinson Cancer Research Center (Seattle, USA). All cells were cultured in Gibco RPMI medium 1640 with Gibco 1% 100×Antibiotic-Antimycotic (Thermo Fisher Scientific, Waltham, USA) and 10% fetal bovine serum. Cells were selected for their different protein expression levels of Bruton's Tyrosine Kinase (BTK) and B Cell Lymphoma 2 (Bcl-2); HL-60 cells express both BTK and Bcl-2, while K-562 and MOLT-4 cells only express BTK and Bcl-2, respectively.
Each cell line was seeded separately into Costar® Black 96-well Assay Plates (Corning USA). Within 1 hr, varying concentrations of individual free drug (ABT-199 or BGB-3111), a combination of both free drugs (w/w 1:1), or a combination of drugs within DcNP's were added to the cells. Following a 5-day incubation, growth of treated cells was compared to untreated cells, quantified using an AlamarBlue Cell Viability Assay (Thermo Fisher Scientific, Waltham, USA) with a PerkinElmer 1420 Multilabel Counter plate reader. Prism graphing software (GraphPad) was used to analyze the absorbance data and to assess relative cell growth.
The effects of DcNP formulation on the effectiveness of ABT-199 and BGB-3111 to inhibit cells that express Bcl-2 and BTK targets is shown in Table 6. Three immortalized human cell lines were selected based on their expression of Bcl-2 (B-cell lymphoma 2; target of venetoclax) and BTK (Bruton's tyrosine kinase; target of zanubrutinib). Cell lines were seeded in 96-well plates at 75,000 cells per well. In separate sets of wells, venetoclax and zanubrutinib were incubated with the cells for 5 days individually as free drug, together as free drug, and together as the drug combination nanoformulation. An AlamarBlue assay was performed to determine relative inhibition of cell growth due to drug presence.

[4] = female, BALB/c, mouse, given in CrEL drug dosage form
[5] = female, BALB/c, mouse, given in DcNP dosage form

Compound: Nc1ccn([C@@H]2O[C@H](CO)[C@@H](O)C2(F)F)c(=O)n1 [Gemcitabine, 4-amino-1-[(2R,4R,5R)-3,3-difluoro-4-hydroxy-5-(hydroxymethyl)oxolan-2-yl]pyrimidin-2-one]
increase in Cmax, GT DcNP compared to CrEL [1]: ~10%
AUC(0-t) [1, 4]: 15300 ng·h/mL
AUC(0-t) [1, 5]: 868000 ng·h/mL
Cmax ([1]; given in CrEL drug dosage form): 165.12^b μg/mL
t1/2apparent ([1]; given in CrEL drug dosage form): 1.60 h
Cmax ([1]; given in DcNP dosage form): 181.4 µg/mL
t1/2apparent ([1]; given in DcNP dosage form): 13.72 h
AE % (association efficiency of drug to DcNP) [2]: 9%
AE % (association efficiency of drug to DcNP) ([2]; listed as G): 9% and 9±1%
AE % (association efficiency of drug to DcNP) ([2]; listed as GEM): 10% and 8% and 7%
AE % (association efficiency of drug to DcNP) ([2]; listed as GEM, mean): 9%
target concentration in plasma [3]: 3 µg/mL

Compound: CC(=O)O[C@H]1C(=O)[C@@]2(C)[C@H]([C@H](OC(=O)c3ccccc3)[C@]3(O)C[C@H](OC(=O)[C@H](O)[C@@H](NC(=O)c4ccccc4)c4ccccc4)C(C)=C1C3(C)C)[C@]1(OC(C)=O)CO[C@@H]1C[C@@H]2O [Paclitaxel, [(1S,2S,3R,4S,7R,9S,10S,12R,15S)-4,12-diacetyloxy-15-[(2R,3S)-3-benzamido-2-hydroxy-3-phenylpropanoyl]oxy-1,9-dihydroxy-10,14,17,17-tetramethyl-11-oxo-6-oxatetracyclo[11.3.1.0^3,10.0^4,7]heptadec-13-en-2-yl] benzoate]
decrease in Cmax, GT DcNP compared to CrEL [1]: ~21%
Cmax ([1]; female, BALB/c, mouse, given in CrEL drug dosage form, read-out: Cmax): 17.7 µg/mL
AUC(0-t) [1, 4]: 2490 ng·h/mL
AUC(0-t) [1, 5]: 9810 ng·h/mL
t1/2apparent ([1]; given in CrEL drug dosage form): 1.81 h
Cmax ([1]; given in DcNP dosage form): 13.9 µg/mL
t1/2apparent ([1]; given in DcNP dosage form): 1.97 h
Median survival (metastatic breast cancer; first-line treatment, combination versus paclitaxel only): 15.8 months
response rate (metastatic breast cancer; gemcitabine 1250 mg/m^2 IV day 1, day 8 and paclitaxel 175 mg/m^2 IV combination compared to paclitaxel alone): 26.2%

IC50 (HL-60 cells; read-out: IC50): 0.00192 µg/mL
EC50 (HL-60 cells): 0.0019 µg/mL
Compound: CC1(C)CCC(CN2CCN(c3ccc(C(=O)NS(=O)(=O)c4ccc(NCC5CCOCC5)c([N+](=O)[O-])c4)c(Oc4cnc5[nH]ccc5c4)c3)CC2)=C(c2ccc(Cl)cc2)C1 [Venetoclax, 4-[4-[[2-(4-chlorophenyl)-4,4-dimethylcyclohexen-1-yl]methyl]piperazin-1-yl]-N-[3-nitro-4-(oxan-4-ylmethylamino)phenyl]sulfonyl-2-(1H-pyrrolo[2,3-b]pyridin-5-yloxy)benzamide]

IC50 (HL-60 cells; read-out: IC50 (sensitivity)): 10.3 µg/mL
EC50 (HL-60 cells): 10 µg/mL
Compound: C=CC(=O)N1CCC([C@@H]2CCNc3c(C(N)=O)c(-c4ccc(Oc5ccccc5)cc4)nn32)CC1 [Zanubrutinib, (7S)-2-(4-phenoxyphenyl)-7-(1-prop-2-enoylpiperidin-4-yl)-4,5,6,7-tetrahydropyrazolo[1,5-a]pyrimidine-3-carboxamide]
